Entries after “also recorded” stand apart in the source; their conditions may differ.
Tested on: soil urease
Test: Urea hydrolysis in bands of urea in soil (banded soil system urease inhibition test)
Format: biochemical
Conditions: for % inhibition, 3 days (as measured by percent urea unhydrolyzed) / % inhibition, 6 days (as measured by percent urea unhydrolyzed): Hastings silt loam soil, 25° C., inhibitor 41 mg/band with urea 410 mg/band (10% of urea wt/wt), two replicates; for % inhibition, 3 days (as measured by percent urea unhydrolyzed): 3 days incubation; for % inhibition, 6 days (as measured by percent urea unhydrolyzed): 6 days incubation; for urease inhibition effectiveness in soil (in words): banded soil system, three- and six-day tests, compared with PPDA
Experimental: Test compounds in Example I, infra, were evaluated in soil systems by an alternative procedure in which powdered mixtures of urea and test compounds were applied in narrow bands in the soil rather than being mixed throughout the soil. The banded configuration is not only applicable to banded applications but also results in concentration gradients of urea, urea hydrolysis products, test compounds, and test compound decomposition products similar to those in the immediate vicinity of urea granules containing test compounds. Another advantage of the banded configuration compared with mixing throughout the soil is that slightly soluble test compounds can be easily band applied, whereas it is difficult to achieve a known degree of mixing of a small quantity of slightly soluble test compound with soil. The banded configuration also enables testing for urease inhibition under realistic soil conditions prior to the development of techniques for cogranulating a wide range of test compounds with urea.
Specifics of the procedure for evaluating test compounds in Example I were as follows. Urease-active soil (Hastings silt loam) was moistened to a moisture content of 20% (dry weight basis) and preincubated at room temperature for two days. Plexiglass containers (6×6×6 cm) were one-half filled with soil and packed to a bulk density of 1.1 g/cm^3. Urea or urea plus inhibitor (thoroughly mixed) was distributed in a narrow band 6 cm long and about 0.5 cm wide on the soil surface. The containers then were filled with soil, again packing to a bulk density of 1.1 g/cm^3. The containers were incubated at 25° C. for the desired reaction period, after which the containers were frozen to about -5° C. to halt urea hydrolysis. Immediately prior to extracting the remaining urea from the soil, said soil was allowed to thaw. Soil from each container was thoroughly mixed, and a 10-g sample was extracted with 100 ml of 2M KCl containing phenylmercuric acetate to prevent urea hydrolysis during handling [L. A. Douglass, J. M. Bremner, Soil Sci. Soc. Am. Proc. 34, 859-862 (1970a)]. Urea in the extracts was determined with an automated version of the colorimetric procedure [L. A. Douglass, J. M. Bremner, Anal. Letters 3, 79-87 (1970b)].
Urease-active soil (Hastings silt loam) was moistened to a moisture content of 20% and preincubated at room temperature for two days. Plexiglass containers (6×6×6 cm) were one-half filled with soil and packed to a bulk density of 1.1 g/cm^3. Urea or urea plus inhibitor (thoroughly mixed) was distributed in a narrow band some 6 cm long and about 0.5 cm wide on the surface of the soil. The containers then were filled with soil and again packed to a bulk density of 1.1 g/cm^3. The containers were incubated at 25° C. for the desired reaction period.
The soil from each container was thoroughly mixed, and 10-g sample was extracted with 100 ml of 2M KCl containing 5 ppm phenylmercuric acetate to prevent urea hydrolysis during handling [L. A. Douglass, J. M. Bremner, Soil Sci. Soc. Am. Proc.34, 859-862 (1970); L. A. Douglass, J. M. Bremner, Anal. Letters 3, 79-87 (1970b)]. The urea in the extracts was determined colorimetrically as a measure of the unhydrolyzed urea.

[O-][n+]1ccccc1S [MPNO, 2-Mercaptopyridine-N-Oxide]
% inhibition, 3 days (as measured by percent urea unhydrolyzed) (Test Series II): 76.8% | % inhibition, 6 days (as measured by percent urea unhydrolyzed) (Test Series II): 32.2% | urease inhibition effectiveness in soil (in words): excellent urease inhibition characteristics

c1ccc(SSc2ccccn2)nc1 [AT, Aldrithiol]
% inhibition, 3 days (as measured by percent urea unhydrolyzed) (Test Series I): 42.9% | % inhibition, 6 days (as measured by percent urea unhydrolyzed) (Test Series I): 0.7% | urease inhibition effectiveness in soil (in words): possesses even the smallest urease activity

Sc1ccccn1 [MP, 2-Mercaptopyridine]
% inhibition, 3 days (as measured by percent urea unhydrolyzed) (Test Series II): 80.2% | % inhibition, 6 days (as measured by percent urea unhydrolyzed) (Test Series II): 37.8% | urease inhibition effectiveness in soil (in words): excellent urease inhibitors

Oc1cccnc1S [MPOL, 2-Mercapto-3-pyridinol]
% inhibition, 3 days (as measured by percent urea unhydrolyzed) (Test Series II): 40.1% | % inhibition, 6 days (as measured by percent urea unhydrolyzed) (Test Series II): 0% | urease inhibition effectiveness in soil (in words): significantly lower inhibition

NP(N)(=O)Oc1ccccc1 [PPDA, Phenyl phosphorodiamidate]
% inhibition, 3 days (as measured by percent urea unhydrolyzed) (Test Series I): 95.6% | % inhibition, 6 days (as measured by percent urea unhydrolyzed) (Test Series I): 59.6% | % inhibition, 3 days (as measured by percent urea unhydrolyzed) (Test Series II): 92.1% | % inhibition, 6 days (as measured by percent urea unhydrolyzed) (Test Series II): 54.2%

[O-][n+]1ccccc1 [PNO, Pyridine-N-Oxide]
% inhibition, 3 days (as measured by percent urea unhydrolyzed) (Test Series II): 11.3% | % inhibition, 6 days (as measured by percent urea unhydrolyzed) (Test Series II): 0% | urease inhibition effectiveness in soil (in words): significantly lower inhibition

[O-][n+]1ccccc1SSc1cccc[n+]1[O-] [DTPNO, 2,2-Dithiobis-pyridine-N-oxide]
% inhibition, 3 days (as measured by percent urea unhydrolyzed) (Test Series I): 92.2% | % inhibition, 6 days (as measured by percent urea unhydrolyzed) (Test Series I): 46.4% | % inhibition, 3 days (as measured by percent urea unhydrolyzed) (Test Series II): 92.6% | % inhibition, 6 days (as measured by percent urea unhydrolyzed) (Test Series II): 38.9% | urease inhibition effectiveness in soil (in words): as effective an inhibitor as PPDA; also recorded: excellent urease inhibition characteristics

Sc1ncccn1 [MPM, 2-Mercaptopyrimidine]
% inhibition, 3 days (as measured by percent urea unhydrolyzed) (Test Series II): 72.8% | % inhibition, 6 days (as measured by percent urea unhydrolyzed) (Test Series II): 44.6% | urease inhibition effectiveness in soil (in words): excellent urease inhibitors

O=[N+]([O-])c1ccc(SSc2ccc([N+](=O)[O-])cn2)nc1 [DTNP, 2,2-Dithio-5-nitropyridine]
% inhibition, 3 days (as measured by percent urea unhydrolyzed) (Test Series I): 8.6% | % inhibition, 6 days (as measured by percent urea unhydrolyzed) (Test Series I): 0.5%

c1ccc(-c2ccccn2)nc1 [DP, 2,2'-Dipyridyl]
% inhibition, 3 days (as measured by percent urea unhydrolyzed) (Test Series I): 12.0% | % inhibition, 6 days (as measured by percent urea unhydrolyzed) (Test Series I): 0.2%
